By melting point is commonly meant the temperature of the solid-liquid transition.

For `O=C(O)CCCCN(CCc1cc(-c2ccc(F)cc2F)ccc1OCc1ccc(C2CCCCC2)cc1)Cc1ccc(C(=O)O)cc1` [Example 1, 4-{[(4-Carboxybutyl)(2-{4-[(4-cyclohexylbenzyl)oxy]-2′,4′-difluoro-1,1′-biphenyl-3-yl}ethyl)amino]methyl}benzoic acid], the melting point was greater than 240 °C.
The compound `O=C(O)CCCCN(CCc1cc(-c2ccc(F)cc2F)ccc1OCc1ccc(-c2ccc(C(F)(F)F)cc2)cc1)Cc1ccc(C(=O)O)cc1` [Example 2, 4-({(4-Carboxybutyl)[2-(2′,4′-difluoro-4-{[4′-(trifluoromethyl)-1,1′-biphenyl-4-yl]methoxy}-1,1′-biphenyl-3-yl)ethyl]amino}methyl)benzoic acid] displayed a melting point greater than 240 °C.

The values above are taken from patent publication US20040176446A1, “Substituted amino dicarboxylic acid derivatives” (priority 2001, published 2004).
